From patent publication US20060223812A1, “Treating neurodegenerative conditions” (MAX-PLANCK-GESELLSCHAFT ZUR FORDERUNGDER WISSENSCHAFTEN, …, priority 2004, published 2006) come the findings set out here.

Each structure is given as a SMILES string.

The assay has as its system N2a cells expressing K18/ΔK280. Nature of the assay: Tau aggregation in cells, sarkosyl extraction and Western blot densitometry. The assay is classed as cell-based, mouse. Particulars: 15 μM emodin. The source says: A crucial test for the application of inhibitors is their effect in cell models of tauopathy. A neuroblastoma (N2a) cell line which allows inducible expression of the tau construct K18ΔK280 under the control of the tet-on transactivator was generated. This construct was chosen because it contains the FTDP17 mutation ΔK280 in the 4-repeat domain K18 which promotes the formation of β-structure and therefore aggregates readily, even in the absence of polyanionic inducers (von Bergen et al., 2001; {Barghorn, 2002).
The tau construct K18/ΔK280 was expressed in the mouse neuroblastoma cell line N2a in an inducible manner under the control of the reverse tetracycline-controlled transactivator (rtTA) as described elsewhere (Gossen & Bujard, 2002). […] After 3-7 days the cells were harvested and tested for tau aggregation, thioflavin S fluorescence, and viability.
The levels and solubility of the K18/ΔK280 tau protein were determined by the method of Greenberg and Davies (1990) which makes use of the insolubility of protein aggregates after treatment with sarkosyl. The supernatant and sarcosyl-insoluble pellets were analysed by Western blotting with the pan-tau antibody K9JA and analysed by densitometry. Aggregation of tau in cells was tested by the fluorescence of thioflavine S. ThS signals were scored in three independent fields containing 40 cells each. […]
(In general: A western blot detects proteins with antibodies after separation by electrophoresis.)

As for `Cc1cc(O)c2c(c1)C(=O)c1cc(O)cc(O)c1C2=O` [Emodin, 1,3,8-Trihydroxy-6-methyl-anthraquinone], the “reduction of sarkosyl-insoluble fraction” value (7 days) is recorded as 5 fold. The “sarkosyl-insoluble fraction of total cellular tau (K18/ΔK280)” value (7 days induction, untreated 14%) turned out to be 3%.
